According to patent US20260116920A1, “HUMAN TRANSFERRIN RECEPTOR BINDING PEPTIDE” (PEPTIDREAM INC., priority 2021, published 2026):
Starred links: 1 amine or outer side, 2 acyl side, 3 side chain; linkers in the order of their positions; H or OH if unused. Positions of bridges follow the written chain, without caps; N, C: chain ends. Non-standard residues stand in square brackets, D forms with d. Residues, ends and D or L forms follow the SMILES beside them. Groups on a side chain read outwards from the residue. *: point of attachment. Trp(1-CH2COOH) = N[C@@H](Cc1cn(CC(=O)O)c2ccccc12)C(=O)O; Meglumine = CN(C[C@H](O)[C@@H](O)[C@H](O)[C@H](O)CO)*; Phe(3-COOH) = N[C@@H](Cc1cccc(C(=O)O)c1)C(=O)O; NH(CH2CH2O)8Me = COCCOCCOCCOCCOCCOCCOCCOCCN*; NMePhe(3-Cl) = CN[C@@H](Cc1cccc(Cl)c1)C(=O)O; 3Pal(6-NH2) = Nc1ccc(C[C@H](N)C(=O)O)cn1; Lys(N3) = [N-]=[N+]=NCCCC[C@H](N)C(=O)O; NMeY = CN[C@@H](Cc1ccc(O)cc1)C(=O)O; 3Pal = N[C@@H](Cc1cccnc1)C(=O)O; 4Pal = N[C@@H](Cc1ccncc1)C(=O)O; PEG4 = NCCOCCOCCOCCOCCC(=O)O; Carboxymethyl = O=C(O)C*; CO = O=C([*:1])[*:2]

The molecules below were run against T1, human transferrin receptor (hTfR) (Homo sapiens, UniProt P02786) (assay: Evaluation of molecular interaction between transferrin receptor (hTfR) and peptide using surface plasmon resonance (SPR)). Conditions: surface plasmon resonance, binding to hTfR; KD class symbol; read-out: SPR (KD value).
T1 construct: made in house
Format: binding
How it was run: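 Binding kinetics of peptides to immobilized recombinant human TfR dimer were measured by SPR at 5–100 nM in a single-cycle format, with KD obtained from curve fitting.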

T1 sequence (P02786 89-760 limits assumed): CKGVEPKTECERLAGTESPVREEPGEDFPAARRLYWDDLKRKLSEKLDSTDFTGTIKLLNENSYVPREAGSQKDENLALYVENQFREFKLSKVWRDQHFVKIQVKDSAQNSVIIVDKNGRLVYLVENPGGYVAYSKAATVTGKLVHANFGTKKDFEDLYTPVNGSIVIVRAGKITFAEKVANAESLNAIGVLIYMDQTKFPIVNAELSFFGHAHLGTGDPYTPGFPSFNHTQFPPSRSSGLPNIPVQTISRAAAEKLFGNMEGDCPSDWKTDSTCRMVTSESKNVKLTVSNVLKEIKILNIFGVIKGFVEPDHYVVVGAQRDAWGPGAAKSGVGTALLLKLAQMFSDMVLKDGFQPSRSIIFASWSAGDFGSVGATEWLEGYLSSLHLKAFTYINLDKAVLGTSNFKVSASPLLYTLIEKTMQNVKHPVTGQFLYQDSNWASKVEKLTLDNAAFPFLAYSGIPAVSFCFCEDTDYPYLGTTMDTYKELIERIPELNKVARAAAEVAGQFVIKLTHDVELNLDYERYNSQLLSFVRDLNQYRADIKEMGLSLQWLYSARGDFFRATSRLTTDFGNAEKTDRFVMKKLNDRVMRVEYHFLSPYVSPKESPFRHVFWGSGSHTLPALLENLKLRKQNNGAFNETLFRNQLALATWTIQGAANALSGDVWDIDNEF

Kd, 0.001 to 0.1 µM:
CC[C@H](C)[C@@H]1NC(=O)[C@H](Cc2ccc(OC)cc2)NC(=O)[C@H](Cc2ccc(O)cc2)NC(=O)[C@H](CC(N)=O)NC(=O)[C@H](Cc2c[nH]c3ncccc23)NC(=O)[C@H](C(C)C)NC(=O)[C@H](Cc2cccc(Cl)c2)N(C)C(=O)[C@H](C(C)C)NC(=O)[C@H](C)NC(=O)CSC[C@@H](C(=O)NCCOCCOCCOCCOCCC(N)=O)NC(=O)[C@H](Cc2ccc(O)cc2)N(C)C(=O)[C@H](Cc2ccncc2)NC(=O)[C@H](CCCNC(=N)N)NC(=O)[C@H](CCCNC(=N)N)NC(=O)[C@H]([C@@H](C)CC)NC1=O [compound 65]
CC[C@H](C)[C@@H]1NC(=O)[C@H](Cc2ccc(OC)cc2)NC(=O)[C@H](Cc2ccc(O)cc2)NC(=O)[C@H](CC(N)=O)NC(=O)[C@H](Cc2c[nH]c3ccccc23)NC(=O)[C@H](C(C)C)NC(=O)[C@H](Cc2cccc(Cl)c2)N(C)C(=O)[C@H](C(C)C)NC(=O)[C@H](C)NC(=O)CSC[C@@H](C(=O)NCCOCCOCCOCCOCCC(N)=O)NC(=O)[C@H](Cc2cccnc2)N(C)C(=O)[C@H](Cc2ccncc2)NC(=O)[C@H](CCCNC(=N)N)NC(=O)[C@H](CCCNC(=N)N)NC(=O)[C@H]([C@@H](C)CC)NC1=O [compound 66]
CC[C@H](C)[C@@H]1NC(=O)[C@H](Cc2cccnc2)NC(=O)[C@H](Cc2ccc(O)cc2)NC(=O)[C@H](CC(N)=O)NC(=O)[C@H](Cc2c[nH]c3ccccc23)NC(=O)[C@H](C(C)C)NC(=O)[C@H](Cc2cccc(Cl)c2)N(C)C(=O)[C@H](C(C)C)NC(=O)[C@H](C)NC(=O)CSC[C@@H](C(=O)NCCOCCOCCOCCOCCC(N)=O)NC(=O)[C@H](Cc2ccc(O)cc2)N(C)C(=O)[C@H](Cc2ccncc2)NC(=O)[C@H](CCC(N)=O)NC(=O)[C@H](CCC(N)=O)NC(=O)[C@H]([C@@H](C)CC)NC1=O [compound 67] ({CH2CO}-AV[NMePhe(3-Cl)]VWNY[3Pal]IIQQ[4Pal][NMeY]C[PEG4]-NH2; thioether N-15)
CC[C@H](C)[C@@H]1NC(=O)[C@H](Cc2cccnc2)NC(=O)[C@H](Cc2ccc(O)cc2)NC(=O)[C@H](CC(N)=O)NC(=O)[C@H](Cc2c[nH]c3ccccc23)NC(=O)[C@H](C(C)C)NC(=O)[C@H](Cc2cccc(Cl)c2)N(C)C(=O)[C@H](C(C)C)NC(=O)[C@H](C)NC(=O)CSC[C@@H](C(=O)NCC(=O)N[C@H](CCCCNC(=O)N(C)C[C@H](O)[C@@H](O)[C@H](O)[C@H](O)CO)C(=O)N[C@H](CCCCNC(=O)N(C)C[C@H](O)[C@@H](O)[C@H](O)[C@H](O)CO)C(=O)N[C@H](CCCCNC(=O)N(C)C[C@H](O)[C@@H](O)[C@H](O)[C@H](O)CO)C(=O)N[C@H](CO)C(=O)N[C@H](CO)C(=O)N[C@@H](CCCCN=[N+]=[N-])C(N)=O)NC(=O)[C@H](Cc2ccc(O)cc2)N(C)C(=O)[C@H](Cc2ccncc2)NC(=O)[C@H](CCCNC(=N)N)NC(=O)[C@H](CCCNC(=N)N)NC(=O)[C@H]([C@@H](C)CC)NC1=O [compound 68] ({CH2CO}-AV[NMePhe(3-Cl)]VWNY[3Pal]IIRR[4Pal][NMeY]CG[dK]([CO-Meglumine])[dK]([CO-Meglumine])[dK]([CO-Meglumine])[dS][dS][Lys(N3)]-NH2; thioether N-15)
CC[C@H](C)[C@@H]1NC(=O)[C@H](Cc2cccnc2)NC(=O)[C@H](Cc2ccc(O)cc2)NC(=O)[C@H](CC(N)=O)NC(=O)[C@H](Cc2c[nH]c3ccccc23)NC(=O)[C@H](C(C)C)NC(=O)[C@H](Cc2cccc(Cl)c2)N(C)C(=O)[C@H](C(C)C)NC(=O)[C@H](C)NC(=O)CSC[C@@H](C(=O)NCC(=O)N[C@H](CCC(=O)O)C(=O)N[C@H](CCC(=O)O)C(=O)N[C@H](CCC(=O)O)C(=O)N[C@H](CO)C(=O)N[C@H](CO)C(=O)N[C@@H](CCCCN=[N+]=[N-])C(N)=O)NC(=O)[C@H](Cc2ccc(O)cc2)N(C)C(=O)[C@H](Cc2ccncc2)NC(=O)[C@H](CCCNC(=N)N)NC(=O)[C@H](CCCNC(=N)N)NC(=O)[C@H]([C@@H](C)CC)NC1=O [compound 69]
CC[C@H](C)[C@@H]1NC(=O)[C@H](Cc2ccc(OC)cc2)NC(=O)[C@H](Cc2ccc(O)cc2)NC(=O)[C@H](CC(N)=O)NC(=O)[C@H](Cc2cn(CC(=O)O)c3ccccc23)NC(=O)[C@H](C(C)C)NC(=O)[C@H](Cc2cccc(Cl)c2)N(C)C(=O)[C@H](C(C)C)NC(=O)[C@H](C)NC(=O)CSC[C@@H](C(=O)NCCOCCOCCOCCOCCC(N)=O)NC(=O)[C@H](Cc2ccc(O)cc2)N(C)C(=O)[C@H](Cc2ccccc2)NC(=O)[C@H](CCC(=O)NCCOCCOCCOCCOCCOCCOCCOCCOC)NC(=O)[C@H](CCCNC(=N)N)NC(=O)[C@H]([C@@H](C)CC)NC1=O [compound 70]
CC[C@H](C)[C@@H]1NC(=O)[C@H](Cc2ccc(OCC(=O)O)cc2)NC(=O)[C@H](Cc2ccc(N)nc2)NC(=O)[C@H](CC(N)=O)NC(=O)[C@H](Cc2cn(CC(=O)O)c3ccccc23)NC(=O)[C@H](C(C)C)NC(=O)[C@H](Cc2cccc(Cl)c2)N(C)C(=O)[C@H](C(C)C)NC(=O)[C@H](C)NC(=O)CSC[C@@H](C(=O)NCCOCCOCCOCCOCCC(N)=O)NC(=O)[C@H](Cc2ccc(O)cc2)N(C)C(=O)[C@H](Cc2ccccc2)NC(=O)[C@H](CCCNC(=N)N)NC(=O)[C@H](CCCNC(=N)N)NC(=O)[C@H]([C@@H](C)CC)NC1=O [compound 71] ({CH2CO}-AV[NMePhe(3-Cl)]V[Trp(1-CH2COOH)]N[3Pal(6-NH2)]Y(Carboxymethyl)IIRRF[NMeY]C[PEG4]-NH2; thioether N-15)
CC[C@H](C)[C@@H]1NC(=O)[C@H](Cc2ccc(OC)cc2)NC(=O)[C@H](Cc2ccc(N)nc2)NC(=O)[C@H](CC(N)=O)NC(=O)[C@H](Cc2cn(CC(=O)O)c3ccccc23)NC(=O)[C@H](C(C)C)NC(=O)[C@H](Cc2cccc(Cl)c2)N(C)C(=O)[C@H](C(C)C)NC(=O)[C@H](C)NC(=O)CSC[C@@H](C(=O)NCCOCCOCCOCCOCCC(N)=O)NC(=O)[C@H](Cc2ccc(O)cc2)N(C)C(=O)[C@H](Cc2cccc(C(=O)O)c2)NC(=O)[C@H](CCCNC(=N)N)NC(=O)[C@H](CCCNC(=N)N)NC(=O)[C@H]([C@@H](C)CC)NC1=O [compound 72] ({CH2CO}-AV[NMePhe(3-Cl)]V[Trp(1-CH2COOH)]N[3Pal(6-NH2)]Y(Me)IIRR[Phe(3-COOH)][NMeY]C[PEG4]-NH2; thioether N-15)
CC[C@H](C)[C@@H]1NC(=O)[C@H](Cc2cccnc2)NC(=O)[C@H](Cc2ccc(O)cc2)NC(=O)[C@H](CC(N)=O)NC(=O)[C@H](Cc2cn(CC(=O)O)c3ccccc23)NC(=O)[C@H](C(C)C)NC(=O)[C@H](Cc2cccc(Cl)c2)N(C)C(=O)[C@H](C(C)C)NC(=O)[C@H](C)NC(=O)CSC[C@@H](C(=O)NCCOCCOCCOCCOCCC(N)=O)NC(=O)[C@H](Cc2ccc(O)cc2)N(C)C(=O)[C@H](Cc2ccccc2)NC(=O)[C@H](CCC(=O)NCCOCCOCCOCCOCCOCCOCCOCCOC)NC(=O)[C@H](CCCNC(=N)N)NC(=O)[C@H]([C@@H](C)CC)NC1=O [compound 73] ({CH2CO}-AV[NMePhe(3-Cl)]V[Trp(1-CH2COOH)]NY[3Pal]IIRE(NH(CH2CH2O)8Me)F[NMeY]C[PEG4]-NH2; thioether N-15)
